From article PMC5689723, “Targeting aggressive prostate cancer-associated CD44v6 using phage display selected peptides” (Oncotarget, 2017)

Test system: v6A3 cells
Assay: MTT assay, v6A3 cells
Assay type: cell-based
Settings: Homo sapiens, PC-3M, 48 h, 5000 cells per well, triplicate, 562 nm, after continuous passage for one month, P< 0.05 vs PC3M, read-out: DOX IC50 of v6A3

**Q.** `COc1cccc2c1C(=O)c1c(O)c3c(c(O)c1C2=O)C[C@@](O)(C(=O)CO)C[C@@H]3O[C@H]1C[C@H](N)[C@H](O)[C@H](C)O1` [DOX, doxorubicin] was tested. Which IC50 did it give?
**A.** The IC50 was 140 nM.
